# Assay results from patent US20250281629A1, “COMPOSITIONS AND METHODS FOR ANTI-PHOSPHOCHOLINE ACTIVE IMMUNOTHERAPY” (Duke University, priority 2022, published 2025).
# Where no end group is shown, it is not given here. C11H22NO6P = phosphorylcholine group attached via 2-methacryloyloxyethyl phosphorylcholine
# Key:
# macrophages (F4/80+) = assay: Nanofiber uptake in i.p. lavage cells, flow cytometry: macrophages; assay type: in vivo, mouse; details: 4 hours after i.p. injection of TAMRA-labeled nanofibers
# Description: (§1) Nanofiber Uptake and Evaluation. The cell types present and their propensity to uptake nanofibers in the i.p. space was tested by injecting mice i.p. with 100 μL of 2 mM TAMRA-labeled fluorescent nanofibers. 4 hours later, mice were euthanized and i.p. lavage was conducted via the injection of 2 mL of cold 1×PBS into the peritoneal cavity and massaging the abdomen for 30 seconds. The solution was then carefully extracted from the i.p. space and the cells were isolated followed by rinsing with ice cold flow buffer (2% heat-inactivated FBS in 1×PBS). The cells present were treated with mouse BD Fc Block (Clone: 2.4G2) (BD Biosciences, 553142) in flow buffer on ice for 30 min and then washed and stained with antibodies against the following markers: CD5-APC (Clone: 53-7.3) (BioLegend, 100626), F4/80-PerCP/Cy5.5 (Clone: BM8) (BioLegend, 123128), CD19-APC/Cy7 (Clone: 6D5) (BioLegend, 115530), CD11c-PE/Cy7 (Clone: N418) (BioLegend, 117318), and CD86-BV605 (Clone: GL1) (BD Biosciences, 2272591) in flow buffer for 30 min on ice. TAMRA-fluorescence as an indication of nanofiber uptake was measured on the PE channel. Cells were then washed in flow buffer and stained with DAPI. Flow cytometry was conducted on a BD FACSCanto II cytometer and the results were analyzed using FlowJo software.
# [1] = Thioflavin T (ThT) assay for β-sheets; assay type: physicochemical; details: peak fluorescence intensity around 488 nm
# Description: Thioflavin T (ThT) Assay. β-sheets were detected by Thioflavin T (ThT) (Alfa Aesar, J61043) binding and resulting fluorescence. 180 μL of 0.05 mM ThT was added to 20 μL of 2 mM nanofibers in a 96-well black plate and allowed to incubate for 1 min. Fluorescence intensity was then determined using an excitation wavelength of 440 nm and emission wavelengths from 460-600 nm at 5 nm intervals. A peak fluorescence intensity at an emission wavelength around 488 nm is indicative of β-sheets.
# [2] = system: mouse anti-PC IgM monoclonal antibody (Clone: BH8); assay: ELISA for measuring nanofiber epitope reactivity; assay type: binding; details: nanofibers coated at 0.2 mM; PC-BSA positive control
# Description: ELISA for Measuring Nanofiber Epitope Reactivity. The reactivity of PC conjugation methods was determined via binding of a mouse anti-PC IgM monoclonal antibody (Clone: BH8) (Sigma, MABF2084) to nanofibers. Nanofibers were diluted to 0.2 mM and coated onto 96-well plates at 4° C. overnight. PC-BSA (Biosearch Technologies, PC-1011-10) was coated at 20 μg/mL in 1×PBS overnight as a positive control, and PBS was used as a negative control. The next day, the plates were washed using 1×PBS with 0.05% Tween 20 (1×PBST) and then blocked with Superblock blocking buffer solution (Thermo Fisher, 37515) three times. This was followed by the addition anti-PC IgM which was serially diluted in 1% BSA in 1×PBST by 5-fold steps beginning from 1:100 (5 μg/mL) and allowed to incubate for 2 h at room temperature. Anti-PC IgM bound to nanofibers was then detected with HRP-conjugated goat anti-mouse IgM (Southern Biotech, 1021-05) and the absorbance values at 450 nm were measured.
# C57BL/6 mice = assay: Serum anti-PC antibody responses of immunized mice via ELISA (PC-BSA coated); assay type: in vivo, mouse
# Description: Mice and Immunizations. Female C57BL/6 mice (Envigo) age 6-10 weeks were used to initiate experiments except for the Il10^−/− colitis study where female B6.129P2-Il10^tm1Cgn/J (The Jackson Laboratory) mice age 5-7 weeks were used. While female mice were used for most experiments, age-matched male C57BL/6 mice (Envigo) were used in a one cycle acute DSS colitis model to confirm efficacy across sexes. Mice were housed at Duke University. All experimental procedures were performed on protocols (A264-18-11 and A199-21-09) approved by the Duke University Institutional Animal Care and Use Committee (IACUC). For subcutaneous immunizations, anesthetized mice were injected once behind each shoulder with 50 μL of 2 mM peptide nanofiber solution or 1×PBS. For intraperitoneal immunizations, mice were injected with 100 μL of 2 mM peptide nanofiber solution or 1×PBS. Nanofiber immunizations with adjuvant contained 10 μg CpG (ODN 1826, IAX-200-002-3001, Innaxon). For injections of only CpG, 10 μg of CpG in 100 μL 1×PBS was used. Mice were typically given three immunizations, with the specific boosting schedules stated in each figure caption, usually at weeks 0, 2, and 4, as this was determined to produce robust antibody responses in a short time frame.
# Detection of Anti-PC Antibody Responses via ELISA. Anti-PC antibody responses in serum collected from the submandibular vein in mice were measured using ELISA. Briefly, plates were coated with 20 μg/mL PC-BSA (Biosearch Technologies, PC-1011-10) in 1×PBS or just 1×PBS at 4° C. overnight. The next day, the plates were washed using 1×PBST (1×PBS with 0.05% Tween 20) and then blocked three times with Superblock blocking buffer solution (Thermo Fisher, 37515). Serum diluted from 1:10^2 to 1:10^5 in 1% BSA in 1×PBST was the added to the plate and allowed to incubate for 2 h at room temperature. Anti-PC IgG was detected using HRP-conjugated Fcγ fragment-specific goat anti-mouse IgG (Jackson Immuno Research, 15-035-071). IgG subclasses and IgM anti-PC antibodies were detected using Southern Biotech HRP-conjugated goat anti-mouse antibodies (IgG1, IgG2b, IgG2c, IgG3, & IgM: 5300-05B). Area under the curve (AUC) measurements were calculated using background-subtracted absorbance values at dilutions from 1:10^2 to 1:10^5. Antibody titers were defined using an absorbance cutoff above background of 0.2 OD, where titer 2 represents an OD value greater than 0.2 at 1:10^2 dilution and so on up to titer 5 at 1:10^5 dilution.
# [3] = system: dendritic cells (F4/80−CD11c+); assay: Nanofiber uptake in i.p. lavage cells, flow cytometry: dendritic cells; assay type: in vivo, mouse; details: 4 hours after i.p. injection of TAMRA-labeled nanofibers
# Description: as §1
# [4] = system: non-B1a B cells (CD19+CD5−); assay: Nanofiber uptake in i.p. lavage cells, flow cytometry: non-B1a B cells; assay type: in vivo, mouse; details: for non-B1a B cells that acquired nanofibers: 4 hours after i.p. injection of TAMRA-labeled nanofibers
# Description: as §1
Substance,macrophages staining positively for nanofibers (macrophages (F4/80+)),thioflavin-T binding (β-sheet fibrillar structure) [1],binding of anti-PC mAb to nanofibers [2],"antibody response against PC-BSA (serum total anti-PC IgG) (C57BL/6 mice; s.c. or i.p., weeks 0, 3, 11, with PADRE-Q11, PC-Q11 vs pa-PC-Q11)",DCs that acquired nanofibers [3],TAMRA MFI of non-B1a B cells ([4]; 4 hours after i.p. injection),non-B1a B cells that acquired nanofibers [4],non-B1a B cells among total TAMRA+ cells ([4]; total TAMRA+ cells categorized by cell type),"anti-PC antibody levels on increasing epitope content 2.5 times (C57BL/6 mice; 0.5 mM (25%) vs 0.2 mM (10%) PCM-Q11, i.p. with CpG)","anti-PC IgG responses, PCM-Q11 vs PC-Q11 (C57BL/6 mice; i.p., weeks 0, 2, 4, both coassembled with PADRE-Q11)","non-B1a B cells in the peritoneal cavity (total cells) ([4]; compared with PC-Q11, Q11, or PBS alone)"
"C11H22NO6P-CSGSG-QQKFQFQFEQQ-NH2 (C(C11H22NO6P)SGSGQQKFQFQFEQQ-NH2) [PC-Q11, phosphodiester PC-Q11]",almost all macrophages staining positively for nanofibers,bound thioflavin-T (ThT),bound,significantly greater antibody response,about 67%,selective uptake,over 80%,acquired primarily by non-B1a B cells,,,
"(C11H22NO6P)n-CCCCSGSG-QQKFQFQFEQQ-NH2 (CCCCSGSGQQKFQFQFEQQ-NH2; not fully specified; cysteine pairing not given here; also: phosphorylcholine groups (C11H22NO6P) n=1-4, attachment not placed) [PCM-Q11, linear multi-PC conjugate]",almost all macrophages staining positively for nanofibers,bound thioflavin-T (ThT),increased binding of an anti-PC mAb compared to PC-Q11 nanofibers and PC-BSA,,< 30%,,< 30%,,no significant change in the response elicited,significantly greater than i.p. immunization with PC-Q11,reduction in non-B1a B cells
